Assay results from patent publication US12083093B2, “Composition for preventing or treating cellular senescence-related diseases comprising salinomycin as effective component” (RESEARCH COOPERATION FOUNDATION OF YEUNGNAM UNIVERSITY, priority 2018, dated 2024).

System: renal fibrosis induced by renal ischemia-reperfusion injury
Assay type: in vivo, C57BL/6J mice
Conditions: compared to PBS group
Procedure: Animal experiments were performed with the approval of the Animal Experimental Ethics Committee, Yeungnam University College of Medicine (YUMC-AEC2018-024). C57BL/6J 8-week-old male mice were anesthetized by intraperitoneal injection of 2.5% Avertin (0.025 ml/g body weight). The mouse was placed on a hot plate at 37° C., and the left flank was incised to expose the left kidney. The renal arteriovenous blood vessels were ligated with a microaneurism clamp (Roboz), and whether the blood vessels were blocked or not was confirmed by the color of the kidneys. During the induction of ischemia, the body temperature of the mice was maintained at 36.5-37.5° C. After 35 minutes, the clamp was removed and it was confirmed that reperfusion occurred.
As a control, renal arteriovenous vessels were not ligated, and the rest was performed in the same manner as above. From 4 days after ischemia-reperfusion injury, 2.5 μl of 10 mM salinomycin was diluted in 100 μl of phosphate buffer solution at intervals of 2 days and injected into the abdominal cavity 3 times (Sal group). […] Three mice were used for each group.
The left kidney in which ischemia-reperfusion injury was induced, was excised in half and fixed in 10% formalin solution or stored frozen in liquid nitrogen.
In order to evaluate kidney function due to ischemia-reperfusion injury, creatinine and blood urea nitrogen (BUN) concentrations in plasma and urine were measured.
Blood was collected from the retro-orbital vascular plexus of the mouse using a heparin capillary tube, and plasma was separated. Plasma creatinine was measured by QuantiChrom™ creatinine assay kit (DICT-500; BioAssay Systems, Hayward, CA, USA), and BUN was investigated by measuring absorbance at 490 nm and 450 nm by a spectrophotometer, respectively by BUN colorimetric detection kit (Arbor Assays, Ann Arbor, Michigan, USA). […]
RIPA buffer was added to the tissue and pulverized with WiseTis homogenizer HG-15D (DAIHAN Scientific, Seoul, South Korea). Centrifugation was performed at 12,000 rpm at 4° C. for 20 minutes, and the supernatant was transferred to a new tube. The protein concentration of the supernatant was quantified by the BCA method.
After electrophoresis (SDS-PAGE) of 30 μg of protein, Western blot analysis was performed. After electrophoresis, the protein was transferred from the gel to a polyvinylidene fluoride membrane (Pall Corporation). The membrane was treated with a 5% Difco™ skim milk solution (Becton, Dickinson and Company, USA) for 2 hours at room temperature, and the primary antibody was added, followed by reaction at room temperature for 2 hours.
As the primary antibody, anti-p53 antibody, anti-p16 antibody, anti-actin antibody and anti-GAPDH antibody were purchased from Santa Cruz Biotechnology, Inc. Anti-phosphorylated-Rb antibody was obtained from New England Biolabs (Ipswich, MA, USA), and the anti-SOD2 antibody and anti-catalase antibody were obtained from Bioworld Technology Inc. (Louis Park, MN, USA), anti-HNE antibody, anti-α-smooth muscle actin antibody, and anti-type I collagen antibody were purchased from Abcam (Cambridge, UK).
The tissue fixed in 10% formalin solution was embedded with paraffin and cut into 4 μm to prepare a tissue sample. After removing paraffin from the tissue sample, hematoxylin-eosin staining, trichrome staining, and PAS staining were performed.
The degree of fibrosis was measured by analyzing the degree of collagen staining using the i-Solution™ software program (IMT Inc., Canada) after trichrome staining and the degree of cell senescence in tissue samples was investigated by staining lipofuscin with Sudan black B (Viegas M S, et al., European journal of histochemistry: EJH. 2007). The degree of peritoneal fibrosis was confirmed by measuring the submesothelial thickness of the peritoneal mesothelial cell layer using the NIH Image J program. […]

[1] = kidney tissue, antioxidant enzyme
[2] = kidney tissue, fibrosis marker, FIG. 7L, 7M

With CC[C@@H](C(=O)[C@@H](C)[C@@H](O)[C@H](C)[C@@H]1O[C@@H]([C@@H](CC)C(=O)O)CC[C@@H]1C)[C@H]1O[C@]2(C=C[C@@H](O)[C@]3(CC[C@@](C)([C@H]4CC[C@](O)(CC)[C@H](C)O4)O3)O2)[C@H](C)C[C@@H]1C [salinomycin] the plasma creatinine (i.p. 3 times at 2-day intervals from day 4, FIG. 7C) was “decreased”, the “plasma BUN” value (i.p. 3 times at 2-day intervals from day 4, FIG. 7D) was “decreased” and the “expression of SOD2 (Western blot)” value [1] was “increased”. For the same compound, the “expression of catalase (Western blot)” value [1] was “increased”, the “expression of pRb (Western blot)” value (kidney tissue, cell proliferation marker, FIG. 7L, 7M) was “decreased” and the “expression of p16 (Western blot)” value (kidney tissue, cellular aging marker, FIG. 7K) was “marked decrease”. For the same compound, the “expression of p53 (Western blot)” value (kidney tissue, cellular aging marker, FIG. 7L, 7M) was “decreased”, the “Sudan Black B (lipofuscin) staining intensity” value (kidney tissue, cellular senescence, FIG. 7G) was “decreased” and the “expression of type 1 collagen (COL1) (Western blot)” value [2] was “decreased”. For the same compound, the “expression of α-SMA (Western blot)” value [2] was “decreased”, the “expression of 4-HNE (Western blot)” value (kidney tissue, oxidative stress marker, FIG. 7K) was “marked decrease” and the “lipid peroxides in tissue” value (kidney tissue, FIG. 7H) was “significantly reduced”. For the same compound, the MDA in tissue (kidney tissue, FIG. 7I) was “significantly reduced”, the superoxides in tissue (kidney tissue, FIG. 7J) was “decreased” and the “degree of tissue fibrosis by trichrome staining” value (kidney, FIG. 7E, 7F) was “significantly reduced”. The “damage to the renal tubules” value (renal tissue specimen, FIG. 7E, 7F) was “significantly reduced”.
